Data set [1] deals with downmodulation of MHC-I molecules expressed on the surface of HIV infected SupT1 cells. The experiment in a line: cells. The conditions noted are these: Human immunodeficiency virus 1, SUP-T1, read-out: EC50 for inhibition of MHC-I downmodulation utilizing the R1 parameter.
A short description of a further data set: in vitro. As to conditions: human, uninfected SupT1 cells.

The text below walks through data of US20220411419A1, “SMALL MOLECULE MODULATORS OF MHC-I” (RetroVirox, Inc., priority 2018, published 2022).

Each structure is given as a SMILES string.

In general, EC50 refers to the concentration needed to bring the measured effect to its halfway point. Broadly, the CC50 is the concentration that lowers cell viability or growth by half. A high value points to better tolerance by the cells. As to `CC1(C)Cc2cccc(OCC(=O)N(Cc3ccccc3)c3nc4c(F)cccc4s3)c2O1` [Compound 32, N-Benzyl-2-((2,2-dimethyl-2,3-dihydrobenzofuran-7-yl)oxy)-N-(4-fluorobenzo[d]thiazol-2-yl)acetamide], the EC50 in data set [1] was determined as 9 nM. Moreover, the CC50 at 48 h in “in vitro” was above 100000 nM.

On to `Cc1csc(N(Cc2ccccn2)C(=O)COc2cccc3c2OC(C)(C)C3)n1` [Compound 33, 2-((2,2-Dimethyl-2,3-dihydrobenzofuran-7-yl)oxy)-N-(4-methylthiazol-2-yl)-N-(pyridin-2-ylmethyl)acetamide], for which the concentration giving a half-maximal response (EC50) in data set [1] amounted to 180 nM. For the same molecule, the CC50 at 48 h in “in vitro” is above 100000 nM.

On to `Cc1csc(N(Cc2cccnc2)C(=O)COc2cccc3c2OC(C)(C)C3)n1` [Compound 34, 2-((2,2-Dimethyl-2,3-dihydrobenzofuran-7-yl)oxy)-N-(4-methylthiazol-2-yl)-N-(pyridin-3-ylmethyl)acetamide], for which, in data set [1], the EC50 was 1400 nM. Besides, in “in vitro”, the CC50 at 48 h is 12000 nM.

Take `Cc1csc(N(Cc2ccncc2)C(=O)COc2cccc3c2OC(C)(C)C3)n1` [Compound 35, 2-((2,2-Dimethyl-2,3-dihydrobenzofuran-7-yl)oxy)-N-(4-methylthiazol-2-yl)-N-(pyridin-4-ylmethyl)acetamide]: the EC50 in data set [1] amounted to 1420 nM. This molecule registered a CC50 at 48 h in “in vitro” above 100000 nM.

Take `Cc1ccc(N(Cc2ccccc2)C(=O)COc2cccc3c2OC(C)(C)C3)nn1` [Compound 36, N-Benzyl-2-((2,2-dimethyl-2,3-dihydrobenzofuran-7-yl)oxy)-N-(6-methylpyridazin-3-yl)acetamide]: the EC50 in data set [1] was 23600 nM. In the data set “in vitro”, the CC50 at 48 h was above 100000 nM.

For the molecule `CC1(C)Cc2cccc(OCC(=O)N(Cc3ccccc3)c3nc4c(s3)CCCC4)c2O1` [Compound 37, N-Benzyl-2-((2,2-dimethyl-2,3-dihydrobenzofuran-7-yl)oxy)-N-(4,5,6,7-tetrahydrobenzo[d]thiazol-2-yl)acetamide], the concentration for a half-maximal effect (EC50) in data set [1] was determined as 2 nM. Also, the midpoint of cytotoxicity in the data set “in vitro”, the CC50 at 48 h, lay at 150 nM.

With `CC1(C)Cc2cccc(OCC(=O)N(Cc3ccccn3)c3nc4c(s3)CCCC4)c2O1` [Compound 38, 2-((2,2-Dimethyl-2,3-dihydrobenzofuran-7-yl)oxy)-N-(pyridin-2-ylmethyl)-N-(4,5,6,7-tetrahydrobenzo[d]thiazol-2-yl)acetamide], in data set [1], the EC50 stood at 6 nM. Moreover, half-maximal cytotoxicity in “in vitro” (CC50 at 48 h) was put at 250 nM.

Turning to `Cc1cccc(CN(C(=O)COc2cccc3c2OC(C)(C)C3)c2nc3c(s2)CCCC3)n1` [Compound 39, 2-((2,2-Dimethyl-2,3-dihydrobenzofuran-7-yl)oxy)-N-((6-methylpyridin-2-yl)methyl)-N-(4,5,6,7-tetrahydrobenzo[d]thiazol-2-yl)acetamide], in data set [1], the EC50 is 20 nM. The CC50 at 48 h in “in vitro” was above 100000 nM.

For `Cc1ccnc(CN(C(=O)COc2cccc3c2OC(C)(C)C3)c2nc3c(s2)CCCC3)c1` [Compound 41, 2-((2,2-Dimethyl-2,3-dihydrobenzofuran-7-yl)oxy)-N-((4-methylpyridin-2-yl)methyl)-N-(4,5,6,7-tetrahydrobenzo[d]thiazol-2-yl)acetamide], in data set [1], the EC50 was determined as 20 nM. In addition, in “in vitro”, the CC50 at 48 h was above 125000 nM.

For the molecule `Cc1cccnc1CN(C(=O)COc1cccc2c1OC(C)(C)C2)c1nc2c(s1)CCCC2` [Compound 42, 2-((2,2-Dimethyl-2,3-dihydrobenzofuran-7-yl)oxy)-N-((3-methylpyridin-2-yl)methyl)-N-(4,5,6,7-tetrahydrobenzo[d]thiazol-2-yl)acetamide], the EC50 in data set [1] was 7300 nM. This molecule also gave a CC50 at 48 h in “in vitro” above 125000 nM.

On to `Cc1csc(N(Cc2ncccn2)C(=O)COc2cccc3c2OC(C)(C)C3)n1` [Compound 43, 2-((2,2-Dimethyl-2,3-dihydrobenzofuran-7-yl)oxy)-N-(4-methylthiazol-2-yl)-N-(pyrimidin-2-ylmethyl)acetamide], for which the EC50 in data set [1] came to 710 nM. This molecule came in with a half-maximal cytotoxic concentration (CC50) at 48 h in “in vitro” above 100000 nM.

With `CC1(C)Cc2cccc(OCC(=O)N(Cc3ncccn3)c3nc4c(s3)CCCC4)c2O1` [Compound 44, 2-((2,2-Dimethyl-2,3-dihydrobenzofuran-7-yl)oxy)-N-(pyrimidin-2-ylmethyl)-N-(4,5,6,7-tetrahydrobenzo[d]thiazol-2-yl)acetamide], the EC50 in data set [1] came out at 33 nM. The molecule also returned a CC50 at 48 h in the data set “in vitro” above 125000 nM.

Turning to `CC1(C)Cc2cccc(OCC(=O)N(Cc3ccccn3)c3nc4c(F)cccc4s3)c2O1` [Compound 45, 2-((2,2-Dimethyl-2,3-dihydrobenzofuran-7-yl)oxy)-N-(4-fluorobenzo[d]thiazol-2-yl)-N-(pyridin-2-ylmethyl)acetamide], the EC50 in data set [1] was 510 nM. The molecule also came in with a half-maximal cytotoxic concentration (CC50) at 48 h in the data set “in vitro” above 100000 nM.

`Cn1ccnc1CN(C(=O)COc1cccc2c1OC(C)(C)C2)c1nc2c(s1)CCCC2` [Compound 46, 2-((2,2-Dimethyl-2,3-dihydrobenzofuran-7-yl)oxy)-N-((1-methyl-1H-imidazol-2-yl)methyl)-N-(4,5,6,7-tetrahydrobenzo[d]thiazol-2-yl)acetamide]: the EC50 in data set [1] was 59 nM. In “in vitro”, the CC50 at 48 h is above 125000 nM.

In the case of `Cc1ccc(CN(C(=O)COc2cccc3c2OC(C)(C)C3)c2ccc(C)cn2)cc1` [Compound 47, 2-((2,2-Dimethyl-2,3-dihydrobenzofuran-7-yl)oxy)-N-(4-methylbenzyl)-N-(5-methylpyridin-2-yl)acetamide], the EC50 in data set [1] came to 5500 nM. This molecule also showed a CC50 at 48 h in “in vitro” above 125000 nM.

With `Cc1ccc(N(Cc2ccccn2)C(=O)COc2cccc3c2OC(C)(C)C3)nc1` [Compound 48, 2-((2,2-Dimethyl-2,3-dihydrobenzofuran-7-yl)oxy)-N-(5-methylpyridin-2-yl)-N-(pyridin-2-ylmethyl)acetamide], the EC50 in data set [1] came to 21000 nM. The molecule also returned a CC50 at 48 h in “in vitro” above 100000 nM.

For `Cc1ccc(CN(C(=O)COc2cccc3c2OC(C)(C)C3)c2ccc(C)cn2)nc1` [Compound 49, 2-((2,2-Dimethyl-2,3-dihydrobenzofuran-7-yl)oxy)-N-(5-methylpyridin-2-yl)-N-((5-methylpyridin-2-yl)methyl)acetamide], the EC50 in data set [1] amounted to 3100 nM. Besides, the 50% cytotoxic concentration (CC50) at 48 h in “in vitro” was above 125000 nM.

Consider `Cc1csc(N(CCc2ccccc2)C(=O)COc2cccc3c2OC(C)(C)C3)n1` [Compound 50, 2-((2,2-Dimethyl-2,3-dihydrobenzofuran-7-yl)oxy)-N-(4-methylthiazol-2-yl)-N-phenethylacetamide], for which the concentration giving a half-maximal response (EC50) in data set [1] came out at 14000 nM. This molecule also came in with a CC50 at 48 h in “in vitro” above 125000 nM.

As for `CC1(C)Cc2cccc(OCC(=O)N(Cc3ccc[nH]3)c3nc4c(s3)CCCC4)c2O1` [Compound 51, N-((1H-Pyrrol-2-yl)methyl)-2-((2,2-dimethyl-2,3-dihydrobenzofuran-7-yl)oxy)-N-(4,5,6,7-tetrahydrobenzo[d]thiazol-2-yl)acetamide], the EC50 in data set [1] amounted to 15 nM. The same molecule returned a CC50 at 48 h in the data set “in vitro” above 125000 nM.

On to `CC1(C)Cc2cccc(OCC(=O)N(Cc3ccncc3)c3nc4c(s3)CCCC4)c2O1` [Compound 52, 2-((2,2-Dimethyl-2,3-dihydrobenzofuran-7-yl)oxy)-N-(pyridin-4-ylmethyl)-N-(4,5,6,7-tetrahydrobenzo[d]thiazol-2-yl)acetamide], for which the EC50 in data set [1] was determined as 32 nM. In “in vitro”, this molecule showed a CC50 at 48 h of 1000 nM.

Take `COc1ccccc1N(C(=O)COc1cccc2c1OC(C)(C)C2)c1nc(C)cs1` [Compound 55, 2-((2,2-Dimethyl-2,3-dihydrobenzofuran-7-yl)oxy)-N-(2-methoxyphenyl)-N-(4-methylthiazol-2-yl)acetamide]: in data set [1], the concentration giving a half-maximal response (EC50) came to 210 nM. This molecule gave a CC50 at 48 h in “in vitro” above 125000 nM.

As to `CCCN(C(=O)COc1cccc2c1OC(C)(C)C2)c1nc2c(s1)CCCC2` [Compound 57, 2-((2,2-dimethyl-2,3-dihydrobenzofuran-7-yl)oxy)-N-propyl-N-(4,5,6,7-tetrahydrobenzo[d]thiazol-2-yl)acetamide], the EC50 in data set [1] stood at 2 nM. The molecule also returned a half-maximal cytotoxic concentration (CC50) at 48 h in the data set “in vitro” above 125000 nM.

For `Cc1csc(N(C(=O)COc2cccc3c2OC(C)(C)C3)c2ccc(F)cc2)n1` [Compound 58, 2-((2,2-Dimethyl-2,3-dihydrobenzofuran-7-yl)oxy)-N-(4-fluorophenyl)-N-(4-methylthiazol-2-yl)acetamide], in data set [1], the EC50 came out at 290 nM. The molecule also had a CC50 at 48 h in the data set “in vitro” above 100000 nM.

As for `Cc1csc(N(C(=O)COc2cccc3c2OC(C)(C)C3)c2ccc(Cl)cc2)n1` [Compound 59, N-(4-Chlorophenyl)-2-((2,2-dimethyl-2,3-dihydrobenzofuran-7-yl)oxy)-N-(4-methylthiazol-2-yl)acetamide], the EC50 in data set [1] was found to be 860 nM. In “in vitro”, this molecule registered a cytotoxic concentration (CC50) at 48 h above 100000 nM.

On to `Cc1csc(N(C(=O)COc2cccc3c2OC(C)(C)C3)c2ccccc2C)n1` [Compound 60, 2-((2,2-Dimethyl-2,3-dihydrobenzofuran-7-yl)oxy)-N-(4-methylthiazol-2-yl)-N-(o-tolyl)acetamide], for which, in data set [1], the EC50 turned out to be 3800 nM. For the same molecule, in “in vitro”, the CC50 at 48 h is above 100000 nM.

Turning to `Cc1csc(N(C(=O)COc2cccc3c2OC(C)(C)C3)c2ccccc2Cl)n1` [Compound 61, N-(2-Chlorophenyl)-2-((2,2-dimethyl-2,3-dihydrobenzofuran-7-yl)oxy)-N-(4-methylthiazol-2-yl)acetamide], the EC50 in data set [1] turned out to be 2170 nM. In “in vitro”, this molecule showed a CC50 at 48 h above 100000 nM.

Regarding `COc1ccc(N(C(=O)COc2cccc3c2OC(C)(C)C3)c2nc(C)cs2)cc1` [Compound 62, 2-((2,2-Dimethyl-2,3-dihydrobenzofuran-7-yl)oxy)-N-(4-methoxyphenyl)-N-(4-methylthiazol-2-yl)acetamide], the concentration giving a half-maximal response (EC50) in data set [1] was 480 nM. In “in vitro”, the CC50 at 48 h was above 100000 nM.

`C=CCN(C(=O)COc1cccc2c1OC(C)(C)C2)c1nc(C)cs1` [Compound 63, N-Allyl-2-((2,2-dimethyl-2,3-dihydrobenzofuran-7-yl)oxy)-N-(4-methylthiazol-2-yl)acetamide]: the EC50 in data set [1] was determined as 190 nM. This molecule also gave a CC50 at 48 h in “in vitro” above 100000 nM.

With `Cc1ccc(N(C(=O)COc2cccc3c2OC(C)(C)C3)c2nc(C)cs2)cc1` [Compound 64, 2-((2,2-Dimethyl-2,3-dihydrobenzofuran-7-yl)oxy)-N-(4-methylthiazol-2-yl)-N-(p-tolyl)acetamide], the EC50 in data set [1] came out at 570 nM. For the same molecule, in “in vitro”, the cytotoxic concentration (CC50) at 48 h was above 100000 nM.
